Marks after values point to notes of the source that are not given here.
How the values were obtained:
suckling rats [1] = experiment: Set II: intestinal morphology of distal SI at different doses of protease, Example 4; format: in vivo, Rattus norvegicus; conditions: in words (FIG. 8)
Experimental: (§1) The second study was about comparing the effect of different doses of protease (15000 USP, 7500 USP, 3750 USP and […]) on the development of the GI tract with control. In this experiment 2 litters of pups were used (n=13 and n=12). Pups were divided into five groups to fed with different doses of protease; 15000 USP (n=3), P7500 USP (n=6), P 3750 USP (n=6), P 1875 USP (n=5) and water as a control (n=5). The feeding was during 3 continuous days, once a day. 24 hours after the last feeding, on day 17, similar dissection steps and analytical procedures as mentioned for the previous experiment were followed.
All samples collected for histology were fixed with Bouin's solution for 24 hours and then stored in 70% ethanol, dehydrated, embedded into the paraffin and then cut into sections with 5 μm thickness. The tissue sections were transferred onto the slides, rehydrated and stained with H&E according to the standard technique. After mounting under cover slips samples were examined using light microscopy to estimate ratio between total length of the villus and length of the adult type enterocytes using ImageJ program.

suckling rats [2] = experiment: Set II: different doses of protease, organ weights, stomach pH and body weight, Example 4; format: in vivo, Rattus norvegicus; parameters: mean body weight Bwt 1/Day 14 / mean body weight Bwt2/Day 15 / mean body weight Bwt3/Day 16 / mean body weight Bwt4/Day 17: unit not given here; conditions: for Cecum / Distal SI / Liver / Pancreas / Proximal SI / SI length / Spleen / Stomach / Thymus: day 17; for pH: stomach contents
Experimental: as §1
All data are presented as mean±standard deviation (SD). […] Results were considered as significant when P<0.05.

Proteinase from Aspergillus melleus [Protease]
vacuolated (fetal-type) enterocytes in distal SI (suckling rats [1]; protease 1875 USP): limited to the middle and the tip of the villi
vacuolated (fetal-type) enterocytes in distal SI (suckling rats [1]; protease 3750 USP): limited to the middle and the tip of the villi
vacuolated (fetal-type) enterocytes in distal SI (suckling rats [1]; protease 7500 USP): limited to the middle and the tip of the villi
vacuolated (fetal-type) enterocytes in distal SI (suckling rats [1]; protease 15000 USP): all of the vacuolated enterocytes disappeared
diarrhoea (suckling rats [2]; highest dose of protease, after first dose on day 14): signs of diarrhoea
mean body weight Bwt 1/Day 14 (suckling rats [2]; protease 15 000USP): 28.7
mean body weight Bwt2/Day 15 (suckling rats [2]; protease 15 000USP): 27.4*
mean body weight Bwt3/Day 16 (suckling rats [2]; protease 15 000USP): 28.2*
mean body weight Bwt4/Day 17 (suckling rats [2]; protease 15 000USP): 30.1*
mean body weight Bwt 1/Day 14 (suckling rats [2]; protease 1875USP): 28.2
mean body weight Bwt2/Day 15 (suckling rats [2]; protease 1875USP): 31.7
mean body weight Bwt3/Day 16 (suckling rats [2]; protease 1875USP): 32.9
mean body weight Bwt4/Day 17 (suckling rats [2]; protease 1875USP): 34.8
Cecum (suckling rats [2]; protease 1875 USP): 2.3 ± 0.2 mg/g BW
Distal SI (suckling rats [2]; protease 1875 USP): 13.3 ± 1.4 mg/g BW
Liver (suckling rats [2]; protease 1875 USP): 31.7 ± 1.1 mg/g BW
Pancreas (suckling rats [2]; protease 1875 USP): 3.0 ± 0.4 mg/g BW
Proximal SI (suckling rats [2]; protease 1875 USP): 16.4 ± 0.8 mg/g BW
SI length (suckling rats [2]; protease 1875 USP): 1.5 ± 0.0 cm/g BW
Spleen (suckling rats [2]; protease 1875 USP): 3.3 ± 0.4 mg/g BW
Stomach (suckling rats [2]; protease 1875 USP): 6.1 ± 0.3 mg/g BW
Thymus (suckling rats [2]; protease 1875 USP): 5.6 ± 0.3 mg/g BW
mean body weight Bwt 1/Day 14 (suckling rats [2]; protease 3750USP): 28.5
mean body weight Bwt2/Day 15 (suckling rats [2]; protease 3750USP): 30.5
mean body weight Bwt3/Day 16 (suckling rats [2]; protease 3750USP): 32.3
mean body weight Bwt4/Day 17 (suckling rats [2]; protease 3750USP): 33.3
Cecum (suckling rats [2]; protease 3750 USP): 2.8 ± 0.3 mg/g BW
Distal SI (suckling rats [2]; protease 3750 USP): 14.7 ± 1.1 mg/g BW
Liver (suckling rats [2]; protease 3750 USP): 32.8 ± 1.7 mg/g BW
Pancreas (suckling rats [2]; protease 3750 USP): 3.2 ± 0.3 mg/g BW
Proximal SI (suckling rats [2]; protease 3750 USP): 17.6 ± 1.5 mg/g BW
SI length (suckling rats [2]; protease 3750 USP): 1.5 ± 0.1 cm/g BW
Spleen (suckling rats [2]; protease 3750 USP): 3.3 ± 0.5 mg/g BW
Stomach (suckling rats [2]; protease 3750 USP): 6.4 ± 0.3 mg/g BW
Thymus (suckling rats [2]; protease 3750 USP): 5.6 ± 0.8 mg/g BW
mean body weight Bwt 1/Day 14 (suckling rats [2]; protease 7500USP): 28.9
mean body weight Bwt2/Day 15 (suckling rats [2]; protease 7500USP): 30.6
mean body weight Bwt3/Day 16 (suckling rats [2]; protease 7500USP): 32.2
mean body weight Bwt4/Day 17 (suckling rats [2]; protease 7500USP): 33.6
Cecum (suckling rats [2]; protease 7500 USP): 3.0 ± 0.2 mg/g BW
Distal SI (suckling rats [2]; protease 7500 USP): 15.4 ± 1.7 mg/g BW
Liver (suckling rats [2]; protease 7500 USP): 33.0 ± 1.6 mg/g BW
Pancreas (suckling rats [2]; protease 7500 USP): 3.4 ± 0.4 mg/g BW
Proximal SI (suckling rats [2]; protease 7500 USP): 19.3 ± 2.0 mg/g BW
SI length (suckling rats [2]; protease 7500 USP): 1.8 ± 0.1 cm/g BW
Spleen (suckling rats [2]; protease 7500 USP): 3.1 ± 0.1 mg/g BW
Stomach (suckling rats [2]; protease 7500 USP): 6.3 ± 0.4 mg/g BW
Thymus (suckling rats [2]; protease 7500 USP): 4.8 ± 0.6 mg/g BW
Cecum (suckling rats [2]; protease 15000 USP): 4.2 ± 0.1 mg/g BW
Distal SI (suckling rats [2]; protease 15000 USP): 18.6 ± 1.0 mg/g BW
Liver (suckling rats [2]; protease 15000 USP): 38.5 ± 2.4 mg/g BW
Pancreas (suckling rats [2]; protease 15000 USP): 4.8 ± 0.2 mg/g BW
Proximal SI (suckling rats [2]; protease 15000 USP): 28.2 ± 1.7 mg/g BW
SI length (suckling rats [2]; protease 15000 USP): 1.8 ± 0.1 cm/g BW
Spleen (suckling rats [2]; protease 15000 USP): 3.0 ± 0.3 mg/g BW
Stomach (suckling rats [2]; protease 15000 USP): 6.9 ± 0.7 mg/g BW
Thymus (suckling rats [2]; protease 15000 USP): 3.0 ± 0.2 mg/g BW
pH (suckling rats [2]; protease 1875 USP): 4.1 ± 0.2
pH (suckling rats [2]; protease 3750 USP): 4.1 ± 0.4
pH (suckling rats [2]; protease 7500 USP): 3.9 ± 0.7
pH (suckling rats [2]; protease 15000 USP): 3.4 ± 0.8

Reference: US9205137B2, “Maturation of gastrointestinal tract” (ANARA AB, priority 2010, dated 2015)
